Each structure is given as a SMILES string.

Type in all cases: functional
The subject of one experiment is Enterococcus. In words: Antibacterial activity against vancomycin-resistant Enterococcus assessed as reduction in microbial growth.
The subject of experiment [1] is Mycobacterium tuberculosis. As to the kind of experiment: Antibacterial activity against Mycobacterium tuberculosis assessed as reduction in microbial growth.
A further experiment concerns Staphylococcus aureus. In words: Antibacterial activity against Staphylococcus aureus NCTC 8325 assessed as reduction in microbial growth.

A word on the MIC: it is the lowest concentration found to suppress growth. `O=C(Nc1ccc2c(c1)OC(F)(F)O2)Nc1ccc(Cl)c(C(F)(F)F)c1`: the MIC in the experiment with Enterococcus was determined as 1 µg/mL; in experiment [1] it was 0.93 µg/mL; in the experiment on Staphylococcus aureus it was 0.18 µg/mL. For the compound `CC(=O)NC[C@H]1CN(c2ccc(N3CCOCC3)c(F)c2)C(=O)O1` [LINEZOLID], in the experiment on Staphylococcus aureus, the MIC came out at 1 µg/mL. On the same count and under the same terms, to `CN[C@H](CC(C)C)C(=O)N[C@H]1C(=O)N[C@@H](CC(N)=O)C(=O)N[C@H]2C(=O)N[C@H]3C(=O)N[C@H](C(=O)N[C@H](C(=O)O)c4cc(O)cc(O)c4-c4cc3ccc4O)[C@H](O)c3ccc(c(Cl)c3)Oc3cc2cc(c3O[C@@H]2O[C@H](CO)[C@@H](O)[C@H](O)[C@H]2O[C@H]2C[C@](C)(N)[C@H](O)[C@H](C)O2)Oc2ccc(cc2Cl)[C@H]1O` [VANCOMYCIN] belongs 1.4 µg/mL.

(Values after ChEMBL document CHEMBL4610080, “Natural Products as Sources of New Drugs over the Nearly Four Decades from 01/1981 to 09/2019” (2020).)
